The values below come from patent publication US12329799B2, “Peptidyl inhibitors of calcineurin-NFAT interaction” (Ohio State Innovation Foundation, priority 2018, dated 2025).

Positions of bridges follow the written chain, without caps; N, C: chain ends. Non-standard residues stand in square brackets, D forms with d. Residues, ends and D or L forms follow the SMILES beside them. Chains are numbered I, II in the order given. *: point of attachment. Benzoyl(2,3-Cl2) = O=C(c1cccc(Cl)c1Cl)*; 2Nal = N[C@@H](Cc1ccc2ccccc2c1)C(=O)O; Tle = CC(C)(C)[C@H](N)C(=O)O; βAla = NCCC(=O)O

Experiment [1] relates to LPS-induced acute lung injury (ALI) in mice. The experiment in a line: LPS sepsis-induced acute lung injury, intranasal CNI93. The class given is in vivo, mouse. The following applies: i.n. 10 mg/kg. As to the method:
As expected, LPS challenge of CPP9-VAVAA (SEQ ID NO: 224) treated mice increased the total protein in BALF by ˜2-fold and TNFα and IL-6 levels in BALF (FIGS. 11A, 11B, and 11D, respectively).
Mouse models of LPS sepsis. Mouse LPS sepsis-induced acute lung injury models were established by intraperitoneal injection of LPS at 10 mg/kg body weight. Acute lung injury was assessed by measuring secretion of TNFα, IL6 in to broncho alveolar lavage fluid (BALF), plasma levels of IL6 and TNFα, and neutrophilic infiltration. Pulmonary edema was measured by increased protein levels in BALF. Neutrophilic infiltration in to bronchoalveolar lavage fluid is determined by Hema 3.0 staining and number of neutrophils in BALF is quantitated.
Neutrophilic inflammation. BALF fluid from different treatment groups of mice was used to prepare Cytospin slides, stained using Hema 3 and number of neutrophils and macrophages per field view of microscopic view were counted and differences among groups calculated.

The subject of experiment [2] is NFAT-mediated luciferase expression in Jurkat cells. In words: NFAT luciferase assay in Jurkat cells. In kind it is cell-based. The following applies: 10 μM, Jurkat cells. As to the method: In a separate experiment, CNI93 was also tested against Jurkat cells expressing a luciferase gene under the transcriptional control of NFAT.
NFAT Luciferase Assay. Jurkat-Lucia cells maintained in RPMI-1640 supplemented with 10% FBS, 1% penicillin/streptomycin (v/v/v) and 100 μg/mL normocin were harvested after a passage with 50 μg/mL selective antibiotic Zeocin at 300×RCF for 5 min. Cells were resuspended in warm RPMI-1640 with antibiotics but without FBS to a final density of 2×10^6 cells/mL and seeded into white-on-white cell-culture treated 96-well plates. To each well was added 10 μL of DPBS containing compounds which dilute to the desired concentrations followed by 170 μL of cell suspension […] and incubated at 37° C. for 2 h. The cells were induced by treatment with 50 ng/mL PMA and 3 μg/mL ionomycin, Ca^2+ salt in FBS to achieve a final FBS concentration of 10% in each well (with FBS only as control). The plate was incubated for an additional 4 h at 37° C., when 20 μL of each sample was withdrawn and mixed with 50 μL of Quanti-Luc assay solution. The luminescence of the mixture was immediately measured on a Tecan Infinite M1000 plate reader.

Take `CC[C@H](C)[C@H](NC(=O)[C@@H](NC(=O)c1cccc(Cl)c1Cl)C(C)(C)C)C(=O)N[C@H](C(=O)N[C@H](C(=O)N[C@H](C(=O)N[C@@H](CCC(N)=O)C(=O)N[C@@H](Cc1c[nH]cn1)C(=O)N[C@H](CC(C)C)C(=O)N[C@@H](CO)C(=O)NCCC(=O)N[C@@H](CCCCNC(=O)CC[C@@H]1NC(=O)[C@@H](CCCNC(=N)N)NC(=O)[C@H](CCCNC(=N)N)NC(=O)[C@@H](CCCNC(=N)N)NC(=O)[C@H](CCCNC(=N)N)NC(=O)[C@H](Cc2ccc3ccccc3c2)NC(=O)[C@@H](Cc2ccccc2)NC1=O)C(N)=O)[C@@H](C)O)[C@@H](C)CC)C(C)(C)C` [CNI93] (I: {Benzoyl(2,3-Cl2)}-[Tle]I[Tle]ITQH[dL]S[βAla]K-NH2 / II: cyclo([2Nal]R[dR]R[dR]E[dF]); amide I:11-II:6 (inferred); ring closure inferred): in experiment [1] (1 h before LPS i.p. 10 mg/kg), the “neutrophilic infiltration into the lungs” value is “prevented”; the “protection from LPS-induced production of cytokines and protein leakage into BALF” value is “almost completely protected”. In addition, in experiment [1] (LPS sepsis mice), the “decrease of plasma level of IL6” value was about 4 fold and the “decrease of plasma level of TNFα” value is on record as about 4 fold. In addition, the “phorbol ester- and ionomycin-induced expression of luciferase” value in experiment [2] was “potently inhibited”.
